Results from ChEMBL document CHEMBL1148772, “Inhibition of Mycobacterium tuberculosis, Mycobacterium bovis, and Mycobacterium avium by novel dideoxy nucleosides” (J Med Chem, 2007).
In brackets after ≈: the same amount, converted by molar mass.

What was measured:
Mycobacterium avium [1] = test: Antimycobacterial activity against Mycobacterium avium ATCC 25291 at 100 uM by microplate alamar blue assay; type: functional
[2] = tested on: Mycobacterium tuberculosis; test: Antimycobacterial activity against Mycobacterium tuberculosis H37Ra at 10 uM by microplate alamar blue assay; type: functional
[3] = Cytotoxicity against human foreskin fibroblast cells by MTT assay; type: cell-based
Mycobacterium avium [4] = test: Antimycobacterial activity against Mycobacterium avium ATCC 25291 at 50 uM by microplate alamar blue assay; type: functional
Mycobacterium avium [5] = test: Antimycobacterial activity against Mycobacterium avium ATCC 25291 at 10 uM by microplate alamar blue assay; type: functional
[6] = tested on: Mycobacterium tuberculosis; test: Antimycobacterial activity against Mycobacterium tuberculosis H37Ra at 50 uM by microplate alamar blue assay; type: functional
[7] = tested on: Mycobacterium tuberculosis; test: Antimycobacterial activity against Mycobacterium tuberculosis H37Ra at 100 uM by microplate alamar blue assay; type: functional
[8] = tested on: Mycobacterium tuberculosis; test: Antimycobacterial activity against Mycobacterium tuberculosis H37Ra at 1 uM by microplate alamar blue assay; type: functional
[9] = Cytotoxicity against Vero cells by MTT assay; type: cell-based; details: African green monkey
Bacillus subtilis = test: Antibacterial activity against Bacillus subtilis ATCC 6633; type: functional
Mycobacterium avium [10] = test: Antimycobacterial activity against Mycobacterium avium ATCC 25291 by microplate alamar blue assay; type: functional
[11] = tested on: Mycobacterium tuberculosis; test: Antimycobacterial activity against Mycobacterium tuberculosis H37Ra by microplate alamar blue assay; type: functional

In the case of `Nc1nc(=O)n([C@H]2CC[C@@H](CO)O2)cc1Br`, the inhibition at 100 µM (Mycobacterium avium [1]) is reported as 0% and the inhibition at 10 µM [2] is reported as 50%.
For `CCCCCCCCCC#Cc1cn([C@H]2CC[C@@H](CO)O2)c(=O)[nH]c1=O`, the CC50 [3] was > 100 µg/mL, the inhibition at 50 µM (Mycobacterium avium [4]) was 100% and the inhibition at 10 µM (Mycobacterium avium [5]) was 50%. For the same molecule, the inhibition at 50 µM [6] was 100%, the inhibition at 100 µM (Mycobacterium avium [1]) was 100% and the inhibition at 100 µM [7] was 100%. The inhibition at 10 µM [2] was 100%, the inhibition at 1 µM [8] was 80% and the CC50 [9] was > 100 µg/mL. The MIC (Bacillus subtilis) was 100 µg/mL (≈ 276 µM), the MIC90 (Mycobacterium avium [10]) was 10 µg/mL (≈ 27.6 µM) and the MIC90 [11] was 1 µg/mL (≈ 2.76 µM).
For `CCCCCCCCCCCC#Cc1cn([C@H]2CC[C@@H](CO)O2)c(=O)[nH]c1=O`, the CC50 [3] was > 100 µg/mL, the inhibition at 50 µM (Mycobacterium avium [4]) was 100% and the inhibition at 10 µM (Mycobacterium avium [5]) was 80%. For the same molecule, the inhibition at 50 µM [6] was 100%, the inhibition at 100 µM (Mycobacterium avium [1]) was 100% and the inhibition at 100 µM [7] was 100%. The inhibition at 10 µM [2] was 50%, the inhibition at 1 µM [8] was 50% and the CC50 [9] was > 100 µg/mL. The MIC90 (Mycobacterium avium [10]) was 10 µg/mL (≈ 25.6 µM) and the MIC90 [11] was 10 µg/mL (≈ 25.6 µM).
Work on `O=c1[nH]c(=O)n([C@H]2CC[C@@H](CO)O2)cc1C#Cc1ccccc1` yielded an inhibition at 50 µM (Mycobacterium avium [4]) of 25%, an inhibition at 10 µM (Mycobacterium avium [5]) of 25% and an inhibition at 50 µM [6] of 25%. For the same molecule, the inhibition at 100 µM (Mycobacterium avium [1]) was 25% and the inhibition at 100 µM [7] was 25%.
`O=c1[nH]c(=O)n([C@H]2CC[C@@H](CO)O2)cc1Br` gave an inhibition at 100 µM (Mycobacterium avium [1]) of 0% and an inhibition at 100 µM [7] of 0%.
Work on `CCCC#Cc1cn([C@H]2CC[C@@H](CO)O2)c(=O)[nH]c1=O` yielded an inhibition at 100 µM (Mycobacterium avium [1]) of 0% and an inhibition at 100 µM [7] of 50%.
For `Nc1ncnc2c1ncn2[C@H]1CC[C@@H](CO)O1`, the inhibition at 100 µM (Mycobacterium avium [1]) was 0% and the inhibition at 100 µM [7] was 0%.
Work on `CC(=O)OC[C@@H]1CC[C@H](n2ccc(=O)[nH]c2=O)O1` yielded an inhibition at 100 µM (Mycobacterium avium [1]) of 0% and an inhibition at 100 µM [7] of 0%.
In the case of `O=c1[nH]c(=O)n([C@H]2CC[C@@H](CO)O2)cc1Cl`, the inhibition at 100 µM (Mycobacterium avium [1]) is reported as 0% and the inhibition at 100 µM [7] is reported as 0%.
In the case of `CCCc1ccc(C#Cc2cn([C@H]3C[C@H](F)[C@@H](CO)O3)c(=O)[nH]c2=O)cc1`, the inhibition at 50 µM [6] is reported as 100%, the inhibition at 100 µM (Mycobacterium avium [1]) is reported as 25% and the inhibition at 100 µM [7] is reported as 100%. The inhibition at 10 µM [2] was 50% and the MIC90 [11] was 50 µg/mL (≈ 134 µM).
With `CCCCCCCCCCCCC#Cc1cn(C2CC(F)C(CO)O2)c(=O)[nH]c1=O` (configuration not stated) the CC50 [3] was > 100 µg/mL, the inhibition at 50 µM [6] was 100% and the inhibition at 100 µM (Mycobacterium avium [1]) was 90%. For the same molecule, the inhibition at 100 µM [7] was 100%, the inhibition at 10 µM [2] was 100% and the inhibition at 1 µM [8] was 80%. For the same molecule, the CC50 [9] was > 100 µg/mL, the MIC90 (Mycobacterium avium [10]) was 100 µg/mL (≈ 237 µM) and the MIC90 [11] was 1 µg/mL (≈ 2.37 µM).
`CCSc1nc(N)nc2c1ncn2[C@H]1CC[C@@H](CO)O1` gave an inhibition at 50 µM (Mycobacterium avium [4]) of 25%, an inhibition at 50 µM [6] of 100% and an inhibition at 100 µM (Mycobacterium avium [1]) of 25%. It also gave an inhibition at 100 µM [7] of 100%, an inhibition at 10 µM [2] of 35% and an MIC90 [11] of 10 µg/mL (≈ 33.9 µM).
For `CC(=O)OC[C@@H]1CC[C@H](n2cc(Cl)c(=S)[nH]c2=O)O1`, the inhibition at 50 µM [6] was 60%, the inhibition at 100 µM (Mycobacterium avium [1]) was 0% and the inhibition at 100 µM [7] was 100%. The MIC90 [11] was 50 µg/mL (≈ 164 µM).
In the case of `CCCCCC#Cc1cn([C@H]2C[C@H](F)[C@@H](CO)O2)c(=O)[nH]c1=O`, the inhibition at 100 µM (Mycobacterium avium [1]) is reported as 0% and the inhibition at 100 µM [7] is reported as 50%.
For `CCCCCCCCC#Cc1cn([C@H]2C[C@H](F)[C@@H](CO)O2)c(=O)[nH]c1=O`, the CC50 [3] was > 100 µg/mL, the inhibition at 50 µM [6] was 100% and the inhibition at 100 µM (Mycobacterium avium [1]) was 50%. The inhibition at 100 µM [7] was 100%, the inhibition at 10 µM [2] was 25% and the CC50 [9] was > 100 µg/mL. The MIC90 [11] was 10 µg/mL (≈ 27.3 µM).
For `CCCCCCCCCCC#Cc1cn([C@H]2C[C@H](F)[C@@H](CO)O2)c(=O)[nH]c1=O`, the CC50 [3] was > 100 µg/mL, the inhibition at 50 µM (Mycobacterium avium [4]) was 40% and the inhibition at 50 µM [6] was 100%. For the same molecule, the inhibition at 100 µM (Mycobacterium avium [1]) was 90%, the inhibition at 100 µM [7] was 100% and the inhibition at 10 µM [2] was 50%. The CC50 [9] was > 100 µg/mL, the MIC90 (Mycobacterium avium [10]) was 100 µg/mL (≈ 253 µM) and the MIC90 [11] was 10 µg/mL (≈ 25.3 µM).
